Laboratory results as given in patent US8349805B2, “Use of Gonadorelin as a therapeutic agent” (priority 2007, dated 2013).
Ends that are not written are not given here.

Experiments:
[1] = test system: murine spleen cells; assay: Th1/Th2 cytokine profiling assay; assay type: cell-based, Balb/c mice; settings: 10 micrograms per ml; Ovalbumin-restimulated murine spleen cells, 72 hours
Source text: The Balb/c mice (originated in 1923, it is a popular strain and is used in many different research disciplines. Also classified as an inbred from the production of 20 or more successive brother-sister matings, the Balb/c mouse is albino and small in size) were immunized on Days 1, 15, and 29 with Ovalbumin (Ovalbumin is the main protein found in egg white, commonly used to stimulate an immunological reaction in test animals) in PBS (5 micrograms/injection). On day 50, spleens of the mice were harvested (3 weeks after last boost with Ovalbumin). Cells were cultured (2×10^5/well in triplicate) and incubated with culture medium or test peptides—10 micrograms per ml—for 30 min. Thereafter, additional Ovalbumin was added to the cells at 10 micrograms/ml for in vitro restimulation of the cells. 72 hours later, cell supernatants were harvested and assayed using the Becton Dickinson Mouse Th1/Th2 Cytokine CBA Kit.

[2] = test system: hepatitis B virus (HBV) ayw strain; assay: HBV replication assay in HepG2-2.2.15 cells (TaqMan PCR of secreted HBV DNA); assay type: cell-based; settings: 10 micrograms per ml; HepG2-2.2.15, 6 days; combination 0.95 mole peptide 1 and 1.05 mole peptide 2
[3] = test system: HUVEC; assay: Endothelial tube formation assay; assay type: cell-based, human; settings: 10 micrograms per ml, 20 hours, combination 1.10 mole:0.90 mole
Source text: Positive control was vehicle only.

[4] = test system: A549 cells; assay: Apoptosis prevention assay (C2 ceramide, Annexin-5); assay type: cell-based, human; settings: 10 micrograms per ml, 30 min pretreatment, combination 0.95:1.05 mole
[5] = test system: Primary Human endothelial cells (HUVEC); assay: Endothelial cell migration assay; assay type: cell-based; settings: 10 micrograms per ml, 22 hours
Procedure: Thereafter, designated concentration of testing peptides—10 micrograms per ml—was added in duplicate wells.

[6] = test system: HCMV strain AD169; assay: HCMV plaque formation assay in MRC-5 cells; settings: 10 micrograms per ml, 7-10 days

Compound	change of the production of TNF-alpha [1]	production of IFN-γ (decreased by %) [1]	production of IL-2 (induced by %) [1]	production of IL-4 (decreased by %) [1]	production of IL-5 (decreased by %) [1]	inhibition of HBV replication as compared to the virus control infection [2]	inhibition of the tube formation of human endothelial cells [3]	reduction of the ceramide-induced apoptosis on human lung cells [4]	inhibition of the migration of human endothelial cells ([5]; combination 1.10 mole:0.90 mole)	inhibition of HCMV plaque formation as compared to the virus control [6]	increase of the migration of endothelial cells [5]
CC(C)C[C@H](NC(=O)CNC(=O)[C@H](Cc1ccc(O)cc1)NC(=O)[C@H](CO)NC(=O)[C@H](Cc1c[nH]c2ccccc12)NC(=O)[C@H](Cc1cnc[nH]1)NC(=O)[C@@H]1CCC(=O)N1)C(=O)N[C@@H](CCCNC(=N)N)C(=O)N1CCC[C@H]1C(=O)NCC(N)=O [Peptide 1]	did not significantly change	did not significantly change	43.6%	65.9%	44.1%	30.4%	6%	27.05%	39%	did not inhibit	
Met-Gln-Met-Lys-Lys-Val-Leu-Asp-Ser-OH (MQMKKVLDS-OH) [Peptide 2]	did not significantly change	27.5%	did not significantly change	did not significantly change	38.8%	no effect	4%	did not reduce		did not inhibit	16%
